Measured values reported in patent publication US11717508B2, “Compounds, compositions, and methods for inhibiting bacterial growth” (priority 2016, dated 2023).
Entries after “also recorded” stand apart in the source; their conditions may differ. Read-outs that look alike come from different tables or passages of the source.

What was measured:
[1] = biological target: T1, DosS (Mycobacterium tuberculosis, UniProt P9WGK3); format: biochemical
[2] = system: Mtb; test: microbe, parasite or virus in culture; format: cell-based; conditions: Mycobacterium tuberculosis, read-out: growth inhibition EC50
[3] = system: Mtb Erdman; test: microbe, parasite or virus in culture; conditions: Mycobacterium tuberculosis, 240 h, read-out: reduction of Mtb viability in the presence of 5 μM INH relative to cultures not treated with INH
[4] = biological target: T1, DosS; test: DosS autophosphorylation assay; format: biochemical
[5] = system: Mtb Erdman; conditions: ERDMAN, 360 h
[6] = system: CDC1551(hspX′:GFP) reporter; test: microbe, parasite or virus in culture; format: cell-based, Mycobacterium tuberculosis; conditions: for EC50: Mycobacterium tuberculosis, read-out: EC50 of inhibition of CDC1551(hspX′:GFP) reporter (dosR-dependent GFP) fluorescence
[7] = biological target: T2, DosT (Mycobacterium tuberculosis, UniProt P9WGK1); format: biochemical
T2 sequence (P9WGK1 whole entry): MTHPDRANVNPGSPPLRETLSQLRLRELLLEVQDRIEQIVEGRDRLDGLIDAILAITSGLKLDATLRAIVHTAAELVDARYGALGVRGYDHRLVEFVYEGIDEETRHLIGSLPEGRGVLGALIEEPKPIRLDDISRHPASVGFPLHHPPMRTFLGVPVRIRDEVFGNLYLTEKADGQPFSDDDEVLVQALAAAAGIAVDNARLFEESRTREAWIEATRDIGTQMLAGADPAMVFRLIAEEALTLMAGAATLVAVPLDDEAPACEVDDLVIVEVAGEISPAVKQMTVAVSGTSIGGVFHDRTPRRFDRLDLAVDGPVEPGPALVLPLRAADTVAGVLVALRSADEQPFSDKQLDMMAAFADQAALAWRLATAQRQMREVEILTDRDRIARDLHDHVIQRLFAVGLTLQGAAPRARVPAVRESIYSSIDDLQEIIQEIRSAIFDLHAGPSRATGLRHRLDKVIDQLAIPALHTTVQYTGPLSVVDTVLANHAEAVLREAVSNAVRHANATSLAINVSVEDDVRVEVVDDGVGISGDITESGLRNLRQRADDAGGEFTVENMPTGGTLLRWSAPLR

[8] = system: DosR regulon genes (dosR, hspX and tgs1); test: NO and vitamin C sensitivity assays (RT-PCR); format: cell-based, Mycobacterium tuberculosis
[9] = biological target: T2, DosT; test: DosT autophosphorylation assay; format: biochemical
[10] = system: DosR regulon genes (dosR, hspX and tgs1); test: RT-PCR of DosR regulon genes under hypoxia; format: cell-based, Mycobacterium tuberculosis; conditions: 6 days
[11] = biological target: T1, DosS; test: LC-MS analysis of DosS reaction samples for heme-artemisinin adducts; format: biochemical; conditions: DosS treated with artemisinin vs DMSO

T1 sequence (P9WGK3 whole entry): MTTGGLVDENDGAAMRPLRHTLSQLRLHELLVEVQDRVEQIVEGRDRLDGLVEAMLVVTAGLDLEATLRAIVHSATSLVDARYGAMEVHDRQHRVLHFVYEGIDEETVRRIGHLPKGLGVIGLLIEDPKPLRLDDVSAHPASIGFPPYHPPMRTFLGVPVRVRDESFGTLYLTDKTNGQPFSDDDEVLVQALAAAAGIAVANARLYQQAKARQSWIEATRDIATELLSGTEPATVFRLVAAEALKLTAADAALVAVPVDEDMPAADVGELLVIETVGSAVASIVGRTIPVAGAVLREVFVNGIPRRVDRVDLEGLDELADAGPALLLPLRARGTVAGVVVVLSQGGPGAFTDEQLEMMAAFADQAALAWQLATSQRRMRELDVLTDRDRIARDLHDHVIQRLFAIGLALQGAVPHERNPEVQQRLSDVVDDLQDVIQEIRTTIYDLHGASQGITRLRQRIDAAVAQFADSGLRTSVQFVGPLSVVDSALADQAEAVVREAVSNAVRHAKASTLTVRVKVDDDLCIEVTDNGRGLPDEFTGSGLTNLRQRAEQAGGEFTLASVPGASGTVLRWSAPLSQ

## O=C(Nc1cccc(O)c1)c1cccc(NC(=O)c2cccs2)c1 [HC103A, N-[3-[(3 hydroxyphenyl)carbamoyl]phenyl]thiophene-2-carboxamide]
[1]
  effect on redox status of DosS heme: no impact on the redox status; also recorded: no effect in modulating redox status of DosS
[2]; […]
  EC50: > 80 µM
[3]
  inhibition at 40 µM: ~30%
[4]
  IC50: 0.5 µM
  maximal inhibition of DosS autophosphorylation: ~90%
[5]
  reduction of Mtb viability when treated with 5 μM INH: ~50%
[6]
  activity of compound regenerated by organic synthesis: confirmed to have the activity of the commercially sourced compounds
[6]; […]
  EC50: 2.7 µM
[7]
  effect on redox status of DosT heme: no impact on the redox status
[8]
  inhibition of induction of DosR regulon (dosR, hspX, tgs1) by NO and vitamin C: strongly inhibited the induction; also recorded: inhibited the induction of DosR regulon
  repression of tgs1 transcript following treatment with DETA-NONOate: 50 fold
  repression of tgs1 transcript in vitamin C treated cells: 3 fold
[9]
  IC50: ~5 µM

## C[C@@H]1CC[C@H]2[C@@H](C)C(=O)O[C@@H]3O[C@]4(C)CC[C@@H]1[C@]32OO4 [HC101A, artemisinin, reference compound]
[3]
  inhibition at 40 µM: ~30%
[10]
  inhibition of dosRS (real-time PCR): 37 fold
  inhibition of hspX (real-time PCR): 51 fold
  inhibition of tgs1 (real-time PCR): 166 fold
[11]
  formation of heme-artemisinin adducts (LC-MS): alkylates the sensor kinase heme to form heme-artemisinin adducts
[7]; DTN-reduced DosT
  concentration at which artemisinin modulates DosT heme / inhibits DosT: 50 µM

## C[C@@H]1CC(C)(C)C[C@]2(C1)NC(=O)NC2=O (racemic) [HC102A, 7,7,9-trimethyl-1,3-diazaspiro[4.5]decane-2,4-dione]
[1]; UV-visible spectra vs DMSO control
  effect on redox status of DosS heme: no impact on the redox status; also recorded: no effect in modulating redox status of DosS
[2]; 6 days, optical density, unit given as M
  EC50: > 80 µM
[3]
  inhibition at 40 µM: ~30%
[4]; 1 hour incubation, read-out: IC50 of inhibition of DosS autophosphorylation
  IC50: 1.9 µM
[4]; dose response
  maximal inhibition of DosS autophosphorylation: ~60%
[6]
  activity of compound regenerated by organic synthesis: confirmed to have the activity of the commercially sourced compounds
[6]; 6 days of treatment
  EC50: 12.4 µM
[7]; UV-visible spectra
  effect on redox status of DosT heme: no impact on the redox status
[8]; 80 μM pretreatment 24 h, 50 μM DETA-NONOate 2 h
  repression of tgs1 transcript following treatment with DETA-NONOate: 3 fold
[8]; 80 μM pretreatment 24 h, 2 mM vitamin C 2 h
  repression of tgs1 transcript in vitamin C treated cells: 2 fold
[8]; pretreatment 24 h, induction 2 h
  inhibition of induction of DosR regulon (dosR, hspX, tgs1) by NO and vitamin C: strongly inhibited the induction; also recorded: inhibited the induction of DosR regulon
[9]; dose response, 1 hour
  impact on DosT autophosphorylation: limited impact
